Results as given in US20240027453A1, “METHOD FOR DETECTION AND QUANTITATIVE MONITORING OF INFECTIONS WITH HERPESVIRUSES” (The Trustees of Princeton University, priority 2020, published 2024).
Where two headings read alike, the source gives them in different places.

Tested on: HCMV
Type: cell-based
Conditions: FIG. 7A
Outline: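 Viral protein levels come from parallel reaction monitoring on a Q Exactive HF: trypsin digests of infected-cell lysates, quantified as summed transition areas, normalized to host control peptides, averaged across peptides per protein. Cells were MRC5 fibroblasts, infected at MOI 3 (HSV-1 or HCMV) after 12 h compound pretreatment, with re-dosing every 24 h.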
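Throughout, for TRM2 (P16792) protein level: each peptide scaled to its average across all runs.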
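Throughout, for UL29 (P16764) protein level: each peptide scaled to its average across all runs.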
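Throughout, for UL31 (P16848) protein level: each peptide scaled to its average across all runs.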
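Throughout, for UL88 (P16731) protein level: each peptide scaled to its average across all runs.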

Compound: Oc1ccc(C=Cc2cc(O)cc(O)c2)cc1 [Resveratrol]
- UL122 (P19893) protein level (timepoint 48, IE): 0.07155
- UL123 (P13202) protein level (timepoint 48, IE): 0.9494
- CVC1 (P16799) protein level (timepoint 48, L): 0.3339
- GO (P16750) protein level (timepoint 48, L): 0.02075
- IR11 (P16809) protein level (timepoint 48, L): 0.3219
- MCP (P16729) protein level (timepoint 48, L): 0.008603
- SCP (Q7M6N6) protein level (timepoint 48, L): 0.008886
- TRM2 (P16792) protein level (timepoint 48, L): 0.03458
- UL22A (P16845) protein level (timepoint 48, L): 0.2188
- UL25 (P16761) protein level (timepoint 48, L): 0.07603
- UL29 (P16764) protein level (timepoint 48, L): 0.5648
- UL30 (P16765) protein level (timepoint 48, L): 0.14
- UL31 (P16848) protein level (timepoint 48, L): 0.3217
- UL43 (P16781) protein level (timepoint 48, L): 0.06887
- UL52 (P16793) protein level (timepoint 48, L): 0.09774
- UL80 (P16753) protein level (timepoint 48, L): 0.04182
- UL82 (P06726) protein level (timepoint 48, L): 0.2191
- UL88 (P16731) protein level (timepoint 48, L): 0.09401
- UL94 (P16800) protein level (timepoint 48, L): 0.1811
- UL99 (P13200) protein level (timepoint 48, L): 0.09897
- UL103 (P16734) protein level (timepoint 48, L): 0.1489
- UL117 (P16770) protein level (timepoint 48, L): 0.4909
- gL (P16832) protein level (timepoint 48, L): 0.05817
- gM (P16733) protein level (timepoint 48, L): 0.04711
- gN (P16795) protein level (timepoint 48, L): 0.08482
- DUT (P16824) protein level (timepoint 48, LL): 0.2262
- IR12 (P16810) protein level (timepoint 48, LL): 0.2614
- TRM3 (P16732) protein level (timepoint 48, LL): 0.02426
- TRX1 (P16783) protein level (timepoint 48, LL): 0.01259
- TRX2 (P16728) protein level (timepoint 48, LL): 0.01003
- UL24 (P16760) protein level (timepoint 48, LL): 0.1046
- UL40 (P16780) protein level (timepoint 48, LL): 1.098
- UL47 (P16784) protein level (timepoint 48, LL): 0.04257
- UL49 (P16786) protein level (timepoint 48, LL): 0.91
- UL69 (P16749) protein level (timepoint 48, LL): 0.3024
- UL70 (P17149) protein level (timepoint 48, LL): 0.5546
- UL83 (P06725) protein level (timepoint 48, LL): 0.03671
- UL132 (P69338) protein level (timepoint 48, LL): 0.2027
- US15 (P09718) protein level (timepoint 48, LL): 1.334
- CVC2 (P16726) protein level (timepoint 72, DE): 0.05308
- DBP (P17147) protein level (timepoint 72, DE): 0.2031
- HELI (P16736) protein level (timepoint 72, DE): 0.7626
- IR01 (P09710) protein level (timepoint 72, DE): 0.4495
- NEC2 (P16791) protein level (timepoint 72, DE): 0.231
- RIR1 (P16782) protein level (timepoint 72, DE): 0.1696
- TRM1 (P16724) protein level (timepoint 72, DE): 0.1736
- UL4 (P17146) protein level (timepoint 72, DE): 0.1863
- UL26 (P16762) protein level (timepoint 72, DE): 0.087
- UL32 (P08318) protein level (timepoint 72, DE): 0.09834
- UL34 (P16812) protein level (timepoint 72, DE): 0.1945
- UL35 (P16766) protein level (timepoint 72, DE): 0.0668
- UL38 (P16779) protein level (timepoint 72, DE): 0.6571
- UL44 (P16790) protein level (timepoint 72, DE): 0.1077
- UL48 (P16785) protein level (timepoint 72, DE): 0.0769
- UL54 (P08546) protein level (timepoint 72, DE): 0.8921
- UL71 (P16823) protein level (timepoint 72, DE): 0.4201
- UL78 (P16751) protein level (timepoint 72, DE): 0.4371
- UL84 (P16727) protein level (timepoint 72, DE): 0.1807
- UL95 (P16801) protein level (timepoint 72, DE): 0.4887
- UL96 (P16787) protein level (timepoint 72, DE): 0.2804
- UL97 (P16788) protein level (timepoint 72, DE): 0.2884
- UL98 (P16789) protein level (timepoint 72, DE): 0.2614
- UL102 (P16827) protein level (timepoint 72, DE): 1.1
- UL104 (P16735) protein level (timepoint 72, DE): 0.1108
- UL112/UL113 (P17151) protein level (timepoint 72, DE): 0.3912
- UL114 (P16769) protein level (timepoint 72, DE): 1.097
- UL119/UL118 (P16739) protein level (timepoint 72, DE): 0.2241
- UL128 (P16837) protein level (timepoint 72, DE): 0.03713
- US8 (P09730) protein level (timepoint 72, DE): 1.041
- US9 (P09729) protein level (timepoint 72, DE): 1.966
- US12 (P09721) protein level (timepoint 72, DE): 0.2709
- US13 (P09720) protein level (timepoint 72, DE): 0.5064
- US14 (P09719) protein level (timepoint 72, DE): 0.1413
- US22 (P09722) protein level (timepoint 72, DE): 0.5654
- US23 (P09701) protein level (timepoint 72, DE): 0.5216
- US24 (P09700) protein level (timepoint 72, DE): 0.3422
- gB (P06473) protein level (timepoint 72, DE): 0.2078
- IRS1 (P09715) protein level (timepoint 72, IE): 1.155
- TRS1 (P09695) protein level (timepoint 72, IE): 1.081
- UL13 (P16755) protein level (timepoint 72, IE): 0.4777
- UL36 (P16767) protein level (timepoint 72, IE): 0.8125
- UL37 (P16778) protein level (timepoint 72, IE): 0.998
- UL122 (P19893) protein level (timepoint 72, IE): 0.0988
- UL123 (P13202) protein level (timepoint 72, IE): 0.8573
- CVC1 (P16799) protein level (timepoint 72, L): 0.4295
- GO (P16750) protein level (timepoint 72, L): 0.03881
- IR11 (P16809) protein level (timepoint 72, L): 0.253
- MCP (P16729) protein level (timepoint 72, L): 0.01144
- SCP (Q7M6N6) protein level (timepoint 72, L): 0.004632
- TRM2 (P16792) protein level (timepoint 72, L): 0.02287
- UL22A (P16845) protein level (timepoint 72, L): 0.2623
- UL25 (P16761) protein level (timepoint 72, L): 0.1265
- UL29 (P16764) protein level (timepoint 72, L): 0.4756
- UL30 (P16765) protein level (timepoint 72, L): 0.1344
- UL31 (P16848) protein level (timepoint 72, L): 0.3595
- UL43 (P16781) protein level (timepoint 72, L): 0.07284
- UL52 (P16793) protein level (timepoint 72, L): 0.1143
- UL76 (P16725) protein level (timepoint 72, L): 0.0261
- UL80 (P16753) protein level (timepoint 72, L): 0.05404
- UL82 (P06726) protein level (timepoint 72, L): 0.2813
- UL87 (P16730) protein level (timepoint 72, L): 0.03862
- UL88 (P16731) protein level (timepoint 72, L): 0.1555
- UL94 (P16800) protein level (timepoint 72, L): 0.2402
- UL99 (P13200) protein level (timepoint 72, L): 0.1374
- UL103 (P16734) protein level (timepoint 72, L): 0.1294
- UL117 (P16770) protein level (timepoint 72, L): 0.3032
- gH (P12824) protein level (timepoint 72, L): 0.1717
- gL (P16832) protein level (timepoint 72, L): 0.07772
- gM (P16733) protein level (timepoint 72, L): 0.06954
- gN (P16795) protein level (timepoint 72, L): 0.07119
- IR12 (P16810) protein level (timepoint 72, LL): 0.182
- TRM3 (P16732) protein level (timepoint 72, LL): 0.02749
- TRX1 (P16783) protein level (timepoint 72, LL): 0.01995
- TRX2 (P16728) protein level (timepoint 72, LL): 0.01998
- UL24 (P16760) protein level (timepoint 72, LL): 0.1072
- UL40 (P16780) protein level (timepoint 72, LL): 0.6851
- UL47 (P16784) protein level (timepoint 72, LL): 0.08828
- UL49 (P16786) protein level (timepoint 72, LL): 1.209
- UL69 (P16749) protein level (timepoint 72, LL): 0.3758
- UL70 (P17149) protein level (timepoint 72, LL): 0.682
- UL83 (P06725) protein level (timepoint 72, LL): 0.03846
- UL132 (P69338) protein level (timepoint 72, LL): 0.215
- US15 (P09718) protein level (timepoint 72, LL): 0.6869
